Results on 5 molecules are retold here after ChEMBL document CHEMBL1949519.

The source made the active and inactive calls. The rule behind the calls is not given here.

Assay type in all cases: cell-based
Common to all, as to conditions: COS-1

Assay [1] addresses T1, Long-wave-sensitive opsin 1 (Homo sapiens) (UniProt P04000).
T1 sequence (whole entry): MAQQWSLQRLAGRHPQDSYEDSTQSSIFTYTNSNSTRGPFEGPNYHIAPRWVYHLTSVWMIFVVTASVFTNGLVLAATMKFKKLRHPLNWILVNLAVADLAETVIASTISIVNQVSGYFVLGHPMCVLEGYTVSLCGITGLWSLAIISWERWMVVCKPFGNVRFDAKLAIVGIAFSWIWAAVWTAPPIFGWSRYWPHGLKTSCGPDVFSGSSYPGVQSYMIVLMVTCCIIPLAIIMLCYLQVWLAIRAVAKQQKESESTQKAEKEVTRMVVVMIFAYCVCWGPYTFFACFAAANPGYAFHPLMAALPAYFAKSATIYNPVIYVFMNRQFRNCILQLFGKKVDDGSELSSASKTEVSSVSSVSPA
Description: Inverse agonist activity at human red cone opsin expressed in COS1 cells assessed as transducer activity at 200 uM by radioactive filter binding assay.

Assay [2] has as its target T1, Long-wave-sensitive opsin 1 (Homo sapiens). Description: Agonist activity at human red cone opsin expressed in COS1 cells assessed as activation of transducer at 20 uM by radioactive filter binding assay.
The target is the same in assay [3]. Description: Inverse agonist activity at human red cone opsin expressed in COS1 cells assessed as transducer activity at 20 uM by radioactive filter binding assay.
Assay [4] shares this target. Description: Inverse agonist activity at human red cone opsin expressed in COS1 cells assessed as transducer activity at 2 mM by radioactive filter binding assay.

`CC1=C(C=O)C(C)(C)CCC1`: the result in assay [1] was Active.

Take `CC1=C(/C=C/C(C)=C/C=C/C(C)=C/C=C/C=O)C(C)(C)CCC1`: in assay [2], the result was inactive.

Turning to `CC1=C(/C=C/C(C)=C\C=C\C=O)C(C)(C)CCC1`, in assay [3], the result was Active.

Regarding `C1CCCCC1`, in assay [4], the outcome was inactive.

For the molecule `CC1CCCC(C)C1` (stereo not given), the outcome in assay [4] was Active.
